Article PMC8632988, “Inhibition of SYK and cSrc kinases can protect bone and cartilage in preclinical models of osteoarthritis and rheumatoid arthritis” (Scientific Reports, 2021)
Where “and” joins values, the source holds several entries; their conditions need not be identical. Equal entries are not always repeated.

Tested on: DBA/1 mice, CIA model
Experiment: Collagen-induced arthritis model in mice
Format: in vivo, mouse
Settings: QD
Method: Collagen-induced arthritis (CIA) model was performed at Bolder BioPATH, USA. Study design and animal usage was approved by Bolder BioPATH’s Institutional Animal Care and Use Committee. CIA was induced in 6–7 week old male DBA/1 mice with body weight of 15–26 g (Harlan, Inc) by intradermal injection of Freund’s Complete Adjuvant (Difco) containing bovine type II collagen (Bolder BioPATH) on day 0 and again on day 21 according to the standard protocol. […] After that mice were randomized into six groups: a control group of four, vehicle group and four treatment groups of ten mice each. […] Each paw was scored daily for inflammation. Therapeutic and prophylactic paws were considered. At study termination mice were euthanized by CO2 inhalation followed by cervical dislocation. Fore paws, hind paws, and knees were removed for microscopy.
Mice were weighed on arthritis days 1, 3, 5, 7, 9, and 11 (prior to necropsy). Daily clinical scores were given for each of the paws (right front, left front, right rear, left rear) on days 1–11 using the following criteria:
After 1–2 days in fixative and 4–5 days in 5% formic acid for decalcification, tissues were trimmed, processed for paraffin embedding, sectioned at 8 µm and stained with toluidine blue. Hind paws and knees were embedded and sectioned in the frontal plane. Two joints from each animal were processed for histopathology evaluation. The joints were then scored by two independent readers as indicated below. When scoring, severity of changes as well as number of individual joints affected were considered. When only 1–3 joints of the paws or ankles out of a possibility of numerous metacarpal/metatarsal/digit or tarsal/tibiotarsal joints were affected, an arbitrary assignment of a maximum score of 1, 2 or 3 for parameters below was given depending on severity of changes. If more than 3 joints were involved, the criteria below were applied to the most severely affected/majority of joints.

Structure (SMILES): CN(Cc1cnc2nc(N)nc(N)c2n1)c1ccc(C(=O)N[C@@H](CCC(=O)O)C(=O)O)cc1 [MTX, methotrexate, reference compound]
- % inhibition to Vehicle, Paw Score Total AUC Sum (d1-11) (1.5 mg/kg PO): 12%
- Paw Score Total AUC Sum (d1-11) (1.5 mg/kg PO, group Mean): 28.46
- Paw Score Total AUC Sum (d1-11) (1.5 mg/kg PO, individual animals): 19.25 and 28.75 and 18.25 and 23.38 and 30.63 and 34.25 and 31.00 and 24.88 and 33.25 and 41.00
- % inhibition to Vehicle, Average Paw Score (Day 1, 1.5 mg/kg PO): 0%
- Average Paw Score Per Arthritis Day (All Paws) (Day 1, 1.5 mg/kg PO, group Mean): 0.80
- Average Paw Score Per Arthritis Day (All Paws) (Day 1, 1.5 mg/kg PO, individual animals, 1.5 mg/kg): 0.50 and 1.00 and 1.50
- % inhibition to Vehicle, Average Paw Score (Day 2, 1.5 mg/kg PO): 19%
- Average Paw Score Per Arthritis Day (All Paws) (Day 2, 1.5 mg/kg PO, group Mean): 1.48
- Average Paw Score Per Arthritis Day (All Paws) (Day 2, 1.5 mg/kg PO, individual animals, 1.5 mg/kg): 0.50 and 1.25 and 1.50 and 1.00 and 2.00 and 1.75 and 2.50
- % inhibition to Vehicle, Average Paw Score (Day 3, 1.5 mg/kg PO): 20%
- Average Paw Score Per Arthritis Day (All Paws) (Day 3, 1.5 mg/kg PO, group Mean): 2.13
- Average Paw Score Per Arthritis Day (All Paws) (Day 3, 1.5 mg/kg PO, individual animals, 1.5 mg/kg): 0.75 and 1.75 and 2.00 and 2.50 and 2.75 and 3.00
- % inhibition to Vehicle, Average Paw Score (Day 4, 1.5 mg/kg PO): 10%
- Average Paw Score Per Arthritis Day (All Paws) (Day 4, 1.5 mg/kg PO, group Mean): 2.85
- Average Paw Score Per Arthritis Day (All Paws) (Day 4, 1.5 mg/kg PO, individual animals, 1.5 mg/kg): 1.75 and 3.00 and 2.00 and 2.25 and 2.50 and 2.75 and 4.00
- % inhibition to Vehicle, Average Paw Score (Day 5, 1.5 mg/kg PO): 9%
- Average Paw Score Per Arthritis Day (All Paws) (Day 5, 1.5 mg/kg PO, group Mean): 3.15
- Average Paw Score Per Arthritis Day (All Paws) (Day 5, 1.5 mg/kg PO, individual animals, 1.5 mg/kg): 2.25 and 2.00 and 4.00 and 2.75 and 4.75
- % inhibition to Vehicle, Average Paw Score (Day 6, 1.5 mg/kg PO): 11%
- Average Paw Score Per Arthritis Day (All Paws) (Day 6, 1.5 mg/kg PO, individual animals, 1.5 mg/kg): 2.50 and 2.00 and 2.25 and 4.00 and 2.75 and 4.75
- % inhibition to Vehicle, Average Paw Score (Day 7, 1.5 mg/kg PO): 12%
- Average Paw Score Per Arthritis Day (All Paws) (Day 7, 1.5 mg/kg PO, individual animals, 1.5 mg/kg): 2.50 and 2.00 and 2.25 and 4.00 and 2.75 and 4.75
- % inhibition to Vehicle, Average Paw Score (Day 8, 1.5 mg/kg PO): 13%
- Average Paw Score Per Arthritis Day (All Paws) (Day 8, 1.5 mg/kg PO, individual animals, 1.5 mg/kg): 2.50 and 2.00 and 3.75 and 4.00 and 2.75 and 4.75
- % inhibition to Vehicle, Average Paw Score (Day 9, 1.5 mg/kg PO): 13%
- Average Paw Score Per Arthritis Day (All Paws) (Day 9, 1.5 mg/kg PO, individual animals, 1.5 mg/kg): 2.50 and 2.00 and 3.00 and 4.00 and 4.25 and 2.75 and 3.75 and 5.00
- % inhibition to Vehicle, Average Paw Score (Day 10, 1.5 mg/kg PO): 12%
- Average Paw Score Per Arthritis Day (All Paws) (Day 10, 1.5 mg/kg PO, individual animals, 1.5 mg/kg): 2.50 and 2.00 and 4.75 and 4.50 and 2.75 and 4.00 and 5.00
- % inhibition to Vehicle, Average Paw Score (Day 11, 1.5 mg/kg PO): 12%
- Average Paw Score Per Arthritis Day (All Paws) (Day 11, 1.5 mg/kg PO, individual animals, 1.5 mg/kg): 2.50 and 2.00 and 4.75 and 4.50 and 2.75 and 4.00 and 5.00
- % inhibition to Vehicle, Total AUC Sum (d1-11) (MTX 1.5 mg/kg PO): 21%
- Summed Prophylactic (Non-Enrollment) Paw Score (MTX 1.5 mg/kg PO, Day 1, group mean): 0.00
- Summed Prophylactic (Non-Enrollment) Paw Score (MTX 1.5 mg/kg PO, Day 1, individual animals): 0
- % inhibition to Vehicle, Summed Prophylactic (Non-Enrollment) Paw Score (MTX 1.5 mg/kg PO, Day 2): 38%
- Summed Prophylactic (Non-Enrollment) Paw Score (MTX 1.5 mg/kg PO, Day 2, group mean): 1.60
- Summed Prophylactic (Non-Enrollment) Paw Score (MTX 1.5 mg/kg PO, Day 2, individual animals): 0 and 2 and 1 and 5 and 4
- % inhibition to Vehicle, Summed Prophylactic (Non-Enrollment) Paw Score (MTX 1.5 mg/kg PO, Day 3): 30%
- Summed Prophylactic (Non-Enrollment) Paw Score (MTX 1.5 mg/kg PO, Day 3, group mean): 3.30
- Summed Prophylactic (Non-Enrollment) Paw Score (MTX 1.5 mg/kg PO, Day 3, individual animals): 0 and 3 and 1 and 4 and 7 and 8 and 5 and 2
- % inhibition to Vehicle, Summed Prophylactic (Non-Enrollment) Paw Score (MTX 1.5 mg/kg PO, Day 4): 20%
- Summed Prophylactic (Non-Enrollment) Paw Score (MTX 1.5 mg/kg PO, Day 4, group mean): 5.10
- Summed Prophylactic (Non-Enrollment) Paw Score (MTX 1.5 mg/kg PO, Day 4, individual animals): 3 and 4 and 1 and 6 and 10
- % inhibition to Vehicle, Summed Prophylactic (Non-Enrollment) Paw Score (MTX 1.5 mg/kg PO, Day 5): 19%
- Summed Prophylactic (Non-Enrollment) Paw Score (MTX 1.5 mg/kg PO, Day 5, group mean): 5.90
- Summed Prophylactic (Non-Enrollment) Paw Score (MTX 1.5 mg/kg PO, Day 5, individual animals): 5 and 4 and 1 and 9 and 12 and 10 and 6
- % inhibition to Vehicle, Summed Prophylactic (Non-Enrollment) Paw Score (MTX 1.5 mg/kg PO, Day 6): 21%
- Summed Prophylactic (Non-Enrollment) Paw Score (MTX 1.5 mg/kg PO, Day 6, group mean): 6.00
- Summed Prophylactic (Non-Enrollment) Paw Score (MTX 1.5 mg/kg PO, Day 6, individual animals): 6 and 4 and 1 and 9 and 12 and 10
- % inhibition to Vehicle, Summed Prophylactic (Non-Enrollment) Paw Score (MTX 1.5 mg/kg PO, Day 7): 22%
- Summed Prophylactic (Non-Enrollment) Paw Score (MTX 1.5 mg/kg PO, Day 7, group mean): 6.10
- Summed Prophylactic (Non-Enrollment) Paw Score (MTX 1.5 mg/kg PO, Day 7, individual animals): 6 and 5 and 4 and 1 and 9 and 12 and 10
- % inhibition to Vehicle, Summed Prophylactic (Non-Enrollment) Paw Score (MTX 1.5 mg/kg PO, Day 8): 22%
- Summed Prophylactic (Non-Enrollment) Paw Score (MTX 1.5 mg/kg PO, Day 8, group mean): 6.30
- Summed Prophylactic (Non-Enrollment) Paw Score (MTX 1.5 mg/kg PO, Day 8, individual animals): 6 and 5 and 4 and 2 and 10 and 12
- % inhibition to Vehicle, Summed Prophylactic (Non-Enrollment) Paw Score (MTX 1.5 mg/kg PO, Day 9): 20%
- Summed Prophylactic (Non-Enrollment) Paw Score (MTX 1.5 mg/kg PO, Day 9, group mean): 6.80
- Summed Prophylactic (Non-Enrollment) Paw Score (MTX 1.5 mg/kg PO, Day 9, individual animals): 6 and 5 and 4 and 3 and 11 and 13 and 10 and 7
- % inhibition to Vehicle, Summed Prophylactic (Non-Enrollment) Paw Score (MTX 1.5 mg/kg PO, Day 10): 16%
- Summed Prophylactic (Non-Enrollment) Paw Score (MTX 1.5 mg/kg PO, Day 10, group mean): 7.40
- Summed Prophylactic (Non-Enrollment) Paw Score (MTX 1.5 mg/kg PO, Day 10, individual animals): 6 and 5 and 4 and 14 and 10 and 8
- % inhibition to Vehicle, Summed Prophylactic (Non-Enrollment) Paw Score (MTX 1.5 mg/kg PO, Day 11): 16%
